# pEC50: −log10 of the molar value.
# Columns and labels:
# [1] = test system: HEK293 clonal cell line overexpressing APOL1 G1; assay: APOL1 G1 HEK293 cell rescue assay (Example B3); type: cell-based; conditions: Homo sapiens, HEK293, HEK293 clonal line overexpressing APOL1 G1; geometric mean of at least 2 runs; † = single run; ¥ = concentration at 50% rescue estimated (no sigmoidal curve)
# Outline: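 Rescue of cell death caused by APOL1 G1 overexpression was measured in a clonal HEK293 line. Compounds were tested in duplicate on one plate, and EC50s were geometric means across at least two runs on different days. Some values are estimated 50%-rescue concentrations where curve fitting failed.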
# [2] = test system: human immortalized podocytes inducibly expressing APOL1 G2; assay: APOL1 G2 podocyte cell rescue assay (Example B4); type: cell-based; conditions: Homo sapiens, differentiated human podocytes, doxycycline-induced APOL1 G2, CellTiter-Glo; geometric mean of at least 2 runs; † = single run
# Outline: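 Differentiated hTERT-immortalized podocytes (clone D10) with doxycycline-inducible C-terminally HiBiT-tagged APOL1 G2, 6,000 cells/well, treated with doxycycline plus 8-point 3-fold compound series (0.4% DMSO) for 95 h at 37 °C. Viability by CellTiter-Glo luminescence; EC50 as geometric mean of ≥2 runs, each in duplicate.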
SMILES,pEC50 [1],pEC50 [2]
"C[C@]1(O)C[C@@H](N2C(=O)CCc3cc(OCCN4CCC5(CC4)C(=O)Nc4ccc(Cl)cc45)cnc32)C1 [Compound 275, 5-chloro-1′-[2-({7-oxo-8-[(cis)-3-hydroxy-3-methylcyclobutyl]-5,6,7,8-tetrahydro-1,8-naphthyridin-3-yl}oxy)ethyl]-1,2-dihydrospiro[indole-3,4′-piperidin]-2-one]",7.20,8.41
"CS(=O)(=O)C1(c2ncc(OCCN3CCC4(CC3)C(=O)Nc3ccc(Cl)cc34)cn2)COC1 [Compound 276, 5-chloro-1′-(2-{[2-(3-methanesulfonyloxetan-3-yl)pyrimidin-5-yl]oxy}ethyl)-1,2-dihydrospiro[indole-3,4′-piperidin]-2-one]",6.64,7.98
"CS(=O)(=O)C1(c2ncc(OCCN3CCC4(CC3)C(=O)Nc3ccc(C#N)cc34)cc2F)CC1 [Compound 283, 1′-(2-{[5-fluoro-6-(1-methanesulfonylcyclopropyl)pyridin-3-yl]oxy}ethyl)-2-oxo-1,2-dihydrospiro[indole-3,4′-piperidine]-5-carbonitrile]",6.68,8.29
"CC(O)c1ncc(OCCN2CCC3(CC2)C(=O)Nc2ccc(Cl)cc23)cn1 (centres unmarked) [Compound 284, 5-chloro-1′-(2-{[2-(1-hydroxyethyl)pyrimidin-5-yl]oxy}ethyl)-1,2-dihydrospiro[indole-3,4′-piperidin]-2-one]",6.11,6.98
"C[C@]1(O)C[C@@H](N2C(=O)OCc3cc(OCCN4CCC5(CC4)C(=O)Nc4ccc(Cl)cc45)cnc32)C1 [Compound 289, 5-chloro-1′-[2-({2-oxo-1-[(cis)-3-hydroxy-3-methylcyclobutyl]-1H,2H,4H-pyrido[2,3-d][1,3]oxazin-6-yl]oxy)ethyl]-1,2-dihydrospiro[indole-3,4′-piperidin]-2-one]",7.30,8.65
"CC1(O)CN(c2ncc(OCCN3CCC4(CC3)C(=O)Nc3ccc(Cl)cc34)cn2)C1 [Compound 300, 5-chloro-1′-(2-{[2-(3-hydroxy-3-methylazetidin-1-yl)pyrimidin-5-yl]oxy}ethyl)-1,2-dihydrospiro[indole-3,4′-piperidin]-2-one]",6.74,7.48
"O=C1Nc2ccc(Cl)cc2C12CCN(CCOc1cnc(N3CC(O)C3)nc1)CC2 [Compound 301, 5-chloro-1′-(2-{[2-(3-hydroxyazetidin-1-yl)pyrimidin-5-yl]oxy}ethyl)-1,2-dihydrospiro[indole-3,4′-piperidin]-2-one]",6.72,7.17
"CC(C)(O)c1ncc(OCCN2CCC3(CC2)C(=O)Nc2ccc(Cl)cc23)cn1 [Compound 305, 5-chloro-1′-(2-{[2-(2-hydroxypropan-2-yl)pyrimidin-5-yl]oxy}ethyl)-1,2-dihydrospiro[indole-3,4′-piperidin]-2-one]",6.76,7.82
"CC1(O)CN(c2nccc3cc(OCCN4CCC5(CC4)C(=O)Nc4ccc(Cl)cc45)cnc23)C1 [Compound 306, 5-chloro-1′-(2-{[8-(3-hydroxy-3-methylazetidin-1-yl)-1,7-naphthyridin-3-yl]oxy}ethyl)-1,2-dihydrospiro[indole-3,4′-piperidin]-2-one]",6.61,8.71
"O=C1Nc2ccc(Cl)cc2C12CCN(CCOc1cnc3c(N4CC(O)C4)nccc3c1)CC2 [Compound 314, 5-chloro-1′-(2-{[8-(3-hydroxyazetidin-1-yl)-1,7-naphthyridin-3-yl]oxy}ethyl)-1,2-dihydrospiro[indole-3,4′-piperidin]-2-one]",7.27,8.34
